Tests used:
Rat [1] = assay: concentration in plasma after dosing; details: 0.5 h; dosed: 2-Methyltetrahydrofuran; 40 mg/kg; iv; Female; Harlan Sprague Dawley
Rat [2] = assay: concentration in brain after dosing; details: 1.5 h; dosed: 2-Methyltetrahydrofuran; 40 mg/kg; iv; Male; Harlan Sprague Dawley
Rat [3] = assay: concentration in brain after dosing; details: 2 h; dosed: 2-Methyltetrahydrofuran; 40 mg/kg; iv; Male; Harlan Sprague Dawley
Rat [4] = assay: concentration in plasma after dosing; details: 6 h; dosed: 2-Methyltetrahydrofuran; 40 mg/kg; iv; Male; Harlan Sprague Dawley
Rat [5] = assay: concentration in plasma after dosing; details: 2 h; dosed: 2-Methyltetrahydrofuran; 40 mg/kg; iv; Male; Harlan Sprague Dawley
Rat [6] = assay: concentration in brain after dosing; details: 7 min; dosed: 2-Methyltetrahydrofuran; 40 mg/kg; iv; Male; Harlan Sprague Dawley
Rat [7] = assay: concentration in liver after dosing; details: 1 h; dosed: Fluorotelomer alcohol 8+2; 24 mg/kg; oral; Male; Harlan Sprague Dawley
Rat [8] = assay: concentration in brain after dosing; details: 6 h; dosed: Fluorotelomer alcohol 8+2; 24 mg/kg; oral; Male; Harlan Sprague Dawley
Rat [9] = assay: concentration in plasma after dosing; details: dosed: 678-39-7, 40 mg/kg, iv, Female, Harlan Sprague-Dawley
Rat [10] = assay: concentration in brain after dosing; details: 12 h; dosed: Fluorotelomer alcohol 8+2; 24 mg/kg; oral; Male; Harlan Sprague Dawley
Rat [11] = assay: concentration in liver after dosing; details: 6 h; dosed: Fluorotelomer alcohol 8+2; 24 mg/kg; oral; Male; Harlan Sprague Dawley
Rat [12] = assay: concentration in plasma after dosing; details: 15 h; dosed: Gemfibrozil; 50 mg/kg; oral; Male; Sprague-Dawley
Rat [13] = assay: concentration in plasma after dosing; details: 0.5 h; dosed: Gemfibrozil; 100 mg/kg; oral; Male; Sprague-Dawley
Rat [14] = assay: concentration in plasma after dosing; details: 2 h; dosed: Gemfibrozil; 50 mg/kg; oral; Male; Sprague-Dawley
Rat [15] = assay: concentration in plasma after dosing; details: 24 h; dosed: Gemfibrozil; 4.29 mg/kg; oral; Male; Sprague-Dawley
Rat [16] = assay: concentration in plasma after dosing; details: 2 h; dosed: Gemfibrozil; 4.29 mg/kg; oral; Male; Sprague-Dawley
Rat [17] = assay: concentration in plasma after dosing; details: 1.5 h; dosed: Perfluorohexanoic Acid; 40 mg/kg; iv; Male; F344
Rat [18] = assay: concentration in plasma after dosing; details: 24 h; dosed: Perfluorooctane Sulfonate; 2 mg/kg; oral; Female; Harlan Sprague Dawley
Rat [19] = assay: concentration in liver after dosing; details: 3360 h; dosed: Perfluorooctane Sulfonate; 20 mg/kg; oral; Male; Harlan Sprague Dawley
Rat [20] = assay: concentration in kidney after dosing; details: 3360 h; dosed: Perfluorooctane Sulfonate; 20 mg/kg; oral; Male; Harlan Sprague Dawley
Rat [21] = assay: concentration in kidney after dosing; details: 6 h; dosed: Perfluorooctane Sulfonate; 20 mg/kg; oral; Female; F344
Rat [22] = assay: concentration in brain after dosing; details: 24 h; dosed: Perfluorooctane Sulfonate; 2 mg/kg; oral; Female; Harlan Sprague Dawley
Rat [23] = assay: concentration in brain after dosing; details: 1848 h; dosed: Perfluorooctane Sulfonate; 20 mg/kg; oral; Male; Harlan Sprague Dawley
Rat [24] = assay: concentration in brain after dosing; details: 24 h; dosed: Perfluorooctane Sulfonate; 20 mg/kg; oral; Male; Harlan Sprague Dawley
rat [25] = assay: concentration in expired air after dosing; details: dosed: trichloroethylene, male

CC1CCCO1 (stereo not given) [2-Methyltetrahydrofuran]
Details | concentration in brain [µg/mL] | concentration in plasma [µg/mL]
Rat [1] | – | 27.2
Rat [2] | 7.3 | –
Rat [3] | 8.26 | –
Rat [4] | – | 0.0297
Rat [5] | – | 13.9
Rat [6] | 34 | –

O=C(O)CCC(F)(F)C(F)(F)C(F)(F)C(F)(F)C(F)(F)C(F)(F)C(F)(F)F [Fluorotelomer acid 7+3]
Details | concentration in brain [ng/g] | concentration in liver [ng/g]
Rat [7] | – | 588
Rat [8] | 179 | –
Rat [10] | 98.2 | –
Rat [11] | – | 1860

Rat [9]
Details | concentration in plasma [µg/mL]
1 h | 1.68
24 h | 0.315

Cc1ccc(C)c(OCCCC(C)(C)C(=O)O)c1 [Gemfibrozil]
Details | concentration in plasma [µg/mL]
Rat [12] | 1.55
Rat [13] | 40.4
Rat [14] | 1.97
Rat [15] | 0.159
Rat [16] | 0.234

O=C(O)C(F)(F)C(F)(F)C(F)(F)C(F)(F)C(F)(F)F [Perfluorohexanoic Acid]
Details | concentration in plasma [µg/mL]
Rat [17] | 8.49

O=S(=O)([O-])C(F)(F)C(F)(F)C(F)(F)C(F)(F)C(F)(F)C(F)(F)C(F)(F)C(F)(F)F [Perfluorooctane Sulfonate]
Details | concentration in brain [ng/g] | concentration in kidney [ng/g] | concentration in liver [ng/g] | concentration in plasma [µg/mL]
Rat [18] | – | – | – | 5.65
Rat [19] | – | – | 29100 | –
Rat [20] | – | 4360 | – | –
Rat [21] | – | 133000 | – | –
Rat [22] | 920 | – | – | –
Rat [23] | 2130 | – | – | –
Rat [24] | 9740 | – | – | –

ClC=C(Cl)Cl [trichloroethylene]
concentration in expired air [µg/mL], rat [25], inhalation, duration: 2 hr, Sprague Dawley
Details | 50 ppm | 500 ppm
0.1579 h | – | 1.57
0.1611 h | 0.155 | –
0.242 h | 0.178 | –
0.2441 h | – | 1.63
0.3273 h | – | 1.62
0.3301 h | 0.176 | –
0.4933 h | 0.177 | 1.73
0.6596 h | – | 1.73
0.6597 h | 0.179 | –
0.8258 h | – | 1.8
0.8264 h | 0.173 | –
0.9952 h | – | 1.83
0.9958 h | 0.179 | –
1.165 h | 0.188 | 1.85
1.328 h | – | 1.74
1.332 h | 0.184 | –
1.497 h | – | 1.84
1.498 h | 0.193 | –
1.661 h | 0.185 | –
1.664 h | – | 1.82
1.825 h | 0.183 | –
1.83 h | – | 1.91
1.991 h | 0.178 | –
2 h | – | 1.79
2.008 h | 0.0618 | –
2.016 h | – | 0.704
2.04 h | 0.0354 | –
2.049 h | – | 0.532
2.071 h | 0.0305 | –
2.081 h | – | 0.458
2.103 h | 0.00892 | –
2.113 h | – | 0.399
2.157 h | 0.0173 | –
2.161 h | – | 0.379
2.238 h | 0.0138 | –
2.248 h | – | 0.359
2.493 h | 0.0102 | –
2.501 h | – | 0.221
2.741 h | 0.00787 | –
2.754 h | – | 0.152
2.992 h | 0.00793 | –
3 h | – | 0.0973
3.244 h | 0.00559 | –
3.25 h | – | 0.082
3.495 h | 0.00205 | –
3.502 h | – | 0.0521
3.746 h | 0.000904 | 0.0221
3.994 h | 0.00217 | –
3.998 h | – | 0.0265
4.494 h | 0.00108 | –
4.501 h | – | 0.0255
4.996 h | 0.0012 | –
5 h | – | 0.0147
40 s | 0.129 | –
42 s | – | 1.27
151 s | 0.148 | –
167 s | – | 1.44
285 s | 0.161 | –
293 s | – | 1.5

rat [25], 6 mg/kg, oral, Wistar
Details | concentration in expired air [ppm]
0.1223 h | 4.6
0.1642 h | 3.99
0.219 h | 3.8
0.2464 h | 2.7
0.4982 h | 1.12
0.7463 h | 0.349
1 h | 0.198
1.245 h | 0.161
1.496 h | 0.113
1.748 h | 0.0858
2 h | 0.0858
99 s | 0.987
289 s | 3.59

Reference: EPA's CvTdb concentration-time database
